Data on three compounds can be found in ChEMBL document CHEMBL1126095, “Incorporation of a novel conformationally restricted tyrosine analog into a cyclic, delta opioid receptor selective tetrapeptide (JOM-13) enhances delta receptor binding affinity and selectivity” (J Med Chem, 1992).

Positions of bridges follow the written chain, without caps; N, C: chain ends. Non-standard residues stand in square brackets, D forms with d. Residues, ends and D or L forms follow the SMILES beside them. Pen = CC(C)(S)[C@H](N)C(=O)O

Assay [1] concerns the target Kappa-type opioid receptor (Cavia porcellus, UniProt P41144). Nature of the assay: Binding affinity against opioid receptor kappa from guinea pig brain homogenates, using [3H]U-69593 as radioligand. The class given is tissue-based.
A further assay addresses Mu-type opioid receptor (Cavia porcellus, UniProt P97266). Nature of the assay: Binding affinity against opioid receptor mu in guinea pig brain homogenates, using [3H]DAMGO as radioligand. The class given is tissue-based.
A short description of assay [2]: Binding affinity against Opioid receptor delta 1 in guinea pig brain homogenates, using [3H]DPDPE as radioligand.

Kappa-type opioid receptor, sequence (P41144 whole entry): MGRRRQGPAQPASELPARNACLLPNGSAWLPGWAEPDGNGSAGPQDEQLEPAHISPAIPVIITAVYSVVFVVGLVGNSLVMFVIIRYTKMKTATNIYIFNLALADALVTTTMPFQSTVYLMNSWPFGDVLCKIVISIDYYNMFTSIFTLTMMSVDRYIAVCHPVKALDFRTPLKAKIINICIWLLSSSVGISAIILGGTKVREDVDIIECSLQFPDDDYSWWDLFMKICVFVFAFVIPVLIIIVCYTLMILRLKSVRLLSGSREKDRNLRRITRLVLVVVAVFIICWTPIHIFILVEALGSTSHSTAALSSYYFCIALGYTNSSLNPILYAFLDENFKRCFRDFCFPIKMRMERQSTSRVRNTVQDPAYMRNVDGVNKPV
Mu-type opioid receptor, sequence (P97266 whole entry): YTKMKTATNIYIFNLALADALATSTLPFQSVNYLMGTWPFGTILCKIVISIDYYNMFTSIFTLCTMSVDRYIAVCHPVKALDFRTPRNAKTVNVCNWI

One may read the Ki as a measure of affinity in units of concentration, obtained from inhibition or displacement. On to `CC1(C)SSC[C@@H](NC(=O)[C@@H]2NCC[C@@H]2c2ccc(O)cc2)C(=O)N[C@@H](Cc2ccccc2)C(=O)N[C@@H]1C(=O)O`, for which the inhibition constant Ki in assay [1] was above 10 µM; at Mu-type opioid receptor, 10 µM.

In assay [2], `CC1(C)SSC[C@H](NC(=O)[C@@H](N)Cc2ccc(O)cc2)C(=O)N[C@@H](Cc2ccccc2)C(=O)N[C@@H]1C(=O)O` (H-YCF[Pen]-OH; disulfide 2-4) gave a Ki of 0.00179 µM.

As for `CC1(C)SSC[C@@H](NC(=O)[C@H]2NCC[C@@H]2c2ccc(O)cc2)C(=O)N[C@@H](Cc2ccccc2)C(=O)N[C@@H]1C(=O)O`, the values for the Ki (in assay [1]; on Mu-type opioid receptor) were 10 µM and 0.105 µM, respectively.
